Test results reported in patent EP4549446A1 (priority 2023, dated 2025).

What was measured:
[1] = SFNA/αCD association constant by 1H NMR titration in D2O; assay type: physicochemical; settings: 298 K, SFNA 2 mM against increasing α-cyclodextrin
Protocol: The preparation of inclusion complexes was carried out by a physical mixture in water between α-cyclodextrin (host) and the sulforaphane analogue (guest; SFNA). The confirmation of complex formation, its stoichiometry, association constant (Kas), and degree of degradation were determined using ^1H NMR spectroscopy.
Determination of the SFNA/αCD association constant. The determination of association constants (Kas, M^-1) for the SFNA/αCD complex was performed through ^1H NMR titration experiments in D2O. The association constants at 298 K were experimentally determined by measuring the changes in chemical shift (Δδ, ppm) of the ^1H NMR signals using fixed solutions of the analogues against increasing concentrations of α-cyclodextrin. In a typical titration experiment, a 2 mM solution of the SFN analogue in D2O was prepared, and a 500 µL aliquot was transferred to the NMR tube, and the initial spectrum was recorded. Furthermore, a solution of a mixture (SFNA at 2 mM/ αCD at 16.11 mM) was prepared and added in 10 µL aliquots to the NMR tube, keeping the analogue concentration constant. The added amounts of α-cyclodextrin were increased until complete complexation of the analogue, and ^1H NMR spectra were recorded after each addition. The mathematical treatment of the curves of chemical shift variations of the analogue proton signals (Δδ) against increasing α-cyclodextrin concentrations using an iterative least-squares fitting procedure allowed for the determination of the Kas values for the analogues (Table 1).

Nrf2 = assay: Nrf2-ARE induction, luciferase assay in AREc32 cells; assay type: cell-based; settings: CD: concentration required to double the specific activity of the luciferase gene, 24 h treatment
[2] = system: normal cell subpopulations from healthy donors; assay: Ex vivo cell viability by flow cytometry on normal cells; assay type: cell-based, human; settings: normal cell subpopulations from healthy donors including hematopoietic precursor cells, 18 h
Protocol: Primary human cells from healthy donors were used in ex vivo assays. The mononuclear fraction was extracted with Ficoll-Paque by density gradient centrifugation and subsequently differentiated from the other cell populations by flow cytometry using an appropriate combination of antibodies: anti-human CD45-Pacific Blue, CD34-FITC, CD19-APC-H7 (BD Biosciences, San Jose, CA) and CD3-FITC (Invitrogen).
Cell viability and cell lysis were also assessed by annexin V/7-AAD using flow cytometry. Donor cells were analysed using 7-AAD a combination of monoclonal antibodies (anti-CD45-Pacific Blue, anti-CD34-FITC, anti-CD3-FITC, anti-CD19-APC-H7). The cells were acquired with the FACSCanto II flow cytometer (BD Biosciences) and analysed with the Infinicyt™ software (Cytognos, Spain).

AML cell lines = assay type: cell-based, human

Row | SMILES | Kas [1] | CD ± SEM (Nrf2) [µM] | EC (2-fold) (Nrf2; read-out: CD ± SEM) [µM] | viability of normal healthy cells [2] | proapoptotic effect on AML cell lines (AML cell lines)
1 | CC(C)OP(=O)(OCCCN=C=S)OC(C)C [SFN-15, Diisopropyl (3-isothiocyanatopropyl) phosphate] | 101,95 M^-1 | 0.52 ± 0.08 |  |  | 
2 | O=P(OCCCN=C=S)(Oc1ccccc1)Oc1ccccc1 [SFN-16, Diphenyl 3-isothiocyanatopropyl phosphate] |  | 1.55 ± 0.45 |  |  | 
3 | C[S+]([O-])CCCCN=C=S (stereo not shown) [SFN-1, sulforaphane, reference compound] |  |  | 0.44 ± 0.28 |  | 
4 | CCOP(=O)(OCC)OCCCN=C=S [SFN-10, Diethyl (3-isothiocyanatopropyl) phosphate] | 34,87 M^-1 | 0.56 ± 0.07 |  | not affected | partially selective proapoptotic effect
5 | CCOP(=O)(CCCCN=C=S)OCC [SFN-14, Diethyl (4-isothiocyanatobutyl)phosphonate] | 135,95 M^-1 |  |  |  | partially selective proapoptotic effect
